Laboratory results published in PMC6270194 (Molecules, 2013).
pIC50: −log10 of the molar value. Marks after values point to notes of the source that are not given here.

Legend:
[1] = DPPH· free radical scavenging assay; details: for pIC50: DPPH· scavenging, 0.2 mM DPPH· in DMSO, absorbance 515 nm; for antiradical capacity lower than other series 3 analogues (fold): relative to other curcumin analogues in series 3
Experimental: DPPH^· assay is widely used to observe radical scavenging activity of various compounds and extracts. DPPH^· is stable N radical which is reduced to hydrazine during its reaction with hydrogen donors.
Initially, 0.2 mM DPPH^· solution was prepared using DMSO as the solvent. […] During reduction of DPPH^· solution by antiradical compound, absorption of DPPH^· was measured at 515 nm. The spectrophotometric data was acquired using BMG FLUOstar OPTIMA spectrophotometer (BMG Labtech, Durham, NC, USA) and the IC50 values were calculated.

[2] = Ferric reducing ability of plasma (FRAP) assay; details: for FRAP antioxidant capacity: 10 μM compounds dissolved in DMSO, Trolox equivalence, mean ± SD
Text: The FRAP assay uses antioxidants in a redox-linked colorimetric assay to reduce ferric tripyridyl triazine to ferrous form at low pH [20].
FRAP assay is based on ferric to ferrous ion reduction to test the electron donating capacity of antioxidants. The assay was modified by using the 96-well microplate reader with an injection port system. Briefly, the FRAP working reagent was made using acetate buffer, 2,4,6-Tris (2-pyridyl)-s-triazine solution and ferric chloride in the ratio 10:1:1. […] After 6 min reaction time, absorbance was measured at 593 nm. Trolox standards at different concentrations were used to calculate the antioxidant capacity as mmol Trolox equivalence per L.

[3] = Oxygen radical absorbance capacity (ORAC) assay; details: for ORAC antioxidant capacity: 1 μM compounds dissolved in DMSO, Trolox equivalence, mean ± SD
Experimental: ORAC assay is based on the free radical damage to a fluorescence probe measured by fluorescence intensity over the time. The fluorescein sodium salt was used as fluorescence probe and change in its intensity was estimated as the index of the degree of free radical damage. Assay was performed using method described elsewhere. Briefly, the standards and samples were prepared using 75 mM phosphate buffer (pH 7). As the peroxy radicals are generated from decomposition of 2,2'-azobis(2-amidino-propane) dihydrochloride (AAPH), the signal was quenched from fluorescein. However, in the presence of antioxidant samples the fluorescence signal can be stabilize which depends directly upon the antioxidant’s capacity to neutralize the free radical. Quadratic relation emerging from florescent area under the decaying curve was used to calculate antioxidant capacity as mmol Trolox equivalence per L.

[4] = tested on: angiotensin converting enzyme (ACE); assay: Angiotensin converting enzyme (ACE) inhibition assay; format: biochemical; details: 10 μM compounds dissolved in DMSO
Experimental: ACE assay is based on ACE inhibitory activity of test samples. The enzyme activity was measured by production of hippuric acid from the substrate hippuryl-L-histidyl-L-leucine (HHL). ACE cleaves the substrate to expose a free N-terminus, which was fluorogenically labeled with o-phthaldialdehyde (OPA). The florescence signal was measured by using excitation of 350 nm and emission of 500 nm. ACE inhibition activity of samples was measured using the following equation: % inhibition = 100 − (Acontrol − Asample)/Acontrol × 100 (1) where A is the absorbance Equation (1).

Tyrosinase = Tyrosinase inhibition assay (L-DOPA substrate); format: biochemical; details: 10 μM compounds dissolved in DMSO
Experimental: Tyrosinase inhibition was calculated based on previously described methods using L-DOPA as the substrate. Tyrosinase inhibition depended upon the amount of dopachrome produced in the reaction mixture. Absorption was measured at 490 nm to calculate the amount of dopachrome produced. The assay was performed in 96-well clear polystyrene plates using FLUOstar OPTIMA plate reader. The tyrosinase inhibitory effect of sample was measured using the following the Equation (1).

HIV-1 protease = target: T1, HIV-1 protease (Human immunodeficiency virus type 1 group M subtype B, UniProt P04585); assay: HIV-1 protease inhibition assay (fluorescent substrate); format: biochemical; details: 10 μM compounds dissolved in DMSO; for inhibition at 10 µM: read-out: % Enzyme Inhibition HIV-I protease
T1 construct: HIV-1 protease enzyme (Sigma Aldrich); purchased Sigma Aldrich
Experimental: HIV-1 protease inhibition was performed by using a previously described method. HIV protease fluorescent substrate and HIV-1 protease enzyme (Sigma Aldrich) were used to determine HIV inhibition capacity of sample. Three primary controls i.e., blank, sample and positive control were used. Reaction mixture of 200 µL comprised of five enzyme units (5U) of HIV-1 protease along with 0.5 pmol of enzyme substrate. After addition of both enzymes and substrates, test compounds were added in different concentrations. Reaction mixture was incubated at 37 °C which leads to generation of fluorescence signal by cleaving Tyr-Pro peptide bond of the substrate. Finally reaction mixture was heated for 5 minutes at 90 °C to stop the reaction. The mixture was centrifuged at 12,000 rpm for 3 min. and supernatant was used to measure the fluorescence signal. The enzyme inhibition was calculated using the Equation (1).

[5] = tested on: human endothelial lung cells; assay: Cytotoxicity analysis by LDH release assay; format: cell-based; details: 10 µM, 24 hours
Experimental: In the current study authors conducted a toxicology study to confirm safety of compounds and their dosage for potential animal or clinical studies. The study was conducted at 10 µM concentration using human endothelial lung cells. […] Literature reports on cytotoxic behavior of potent natural antioxidants are rare. Research in the field of free radicals mainly deals with screening of novel antioxidants and their mechanism of action.
Human lung cell line (ATCC® PCS-100-022™) was purchased from American Type Culture Collection (Cederlane, Burlington, ON, Canada). Cell lines were maintained and grown in DMEM complete growth media, supplemented with 10% fetal bovine serum (FBS), 100 units/mL penicillin and 100 µg/mL streptomycin (Cederlane) at 37 °C, in a humidified 5% CO2 incubator. Cell growth medium was changed every 48 hours and when cells reached 80% confluence, they were detached from 75 cm^2 tissue culture flask using 0.25% trypsin-EDTA treatment. The detached cells were collected in sterile tube in FBS free media. Collected cells were then counted using the Millipore Scepter 2.0 handheld automated cell counter. Further assay specific analysis was performed as described in section 2.10.
Cytotoxicity assay was performed using Promega Cytotox 96® non-radioactive colorimetric assay (Promega Corporation). The assay measures the lactate dehydrogenase (LDH) release upon cell lysis. The released LDH from cells was measured in an enzymatic assay based on conversion of tetrazolium salt to a red formazan product. Briefly, 5,000 human endothelial lung cells in 100 µL of serum-free culture medium were seeded in 96 well sterile plates. Cells were allowed to adhere to the plates for 24 h at 37 °C in a humidified, 5% CO2 incubator. After 24 h, the serum-free media was replaced by test compounds in 100 µL of serum-free culture medium. […] The test compounds at 10 µM concentration were allowed to interact with cells for 24 hours after which absorbance were recorded at 490 nm using BMG FLUOstar OPTIMA spectrophotometer (BMG Labtech, Durham, NC). […]

[6] = DPPH assay, relative to curcumin

Compound	pIC50 [1]	FRAP antioxidant capacity [2]	ORAC antioxidant capacity [3]	% Enzyme Inhibition ACE [4]	% Enzyme Inhibition Tyrosinase (Tyrosinase)	inhibition at 10 µM (HIV-1 protease)	radical scavenging capacity higher than curcumin (fold) [1, 6]	% Enzyme Inhibition HIV-I protease (HIV-1 protease)	antiradical capacity lower than other series 3 analogues (fold) ([1]; DPPH assay)	cytotoxicity ranking (LDH release), in words [5]	DPPH· scavenging capacity weaker than curcumin (fold) [1, 6]	ORAC value, peroxyl radical scavenging capacity [3]	FRAP value ([2]; 10 µM concentration)
O=C1/C(=C(O)/C=C/c2ccc(Cl)cc2)CCC/C1=C\c1ccc(Cl)cc1 [Compound 2f]	3.15	1.28 ± 0.04 ^fg mmole TE/L	0.49 ± 0.1 ^ef mmole TE/L	No ACE inhibition activity was detected	60.15 ^ef %	9.9%	–	–	–	–	–	–	–
(E)-2-(3,4-dimethoxybenzylidene)-5-((E)-3-(3,4-dimethoxyphenyl)acryloyl)cyclopentanone [Compound 3e]	4.52	0.67 ± 0.02 ^j mmole TE/L	0.69 ± 0.1 ^e mmole TE/L	56.95 ^de %	–	–	over 10 fold	44.5 ^cd %	–	–	–	–	–
COc1cc(/C=C/C(O)=C2\CCC/C(=C\c3ccc(O)c(OC)c3)C2=O)ccc1O [Compound 2d]	3.14	5.35 ± 0.1 ^b mmole TE/L	0.50 ± 0.02 ^ef mmole TE/L	84.59 ^ab %	56.84 ^h %	37.3%	–	–	–	–	–	–	–
O=C1/C(=C(O)/C=C/c2ccc([N+](=O)[O-])cc2)CC/C1=C\c1ccc([N+](=O)[O-])cc1 [Compound 3h]	3.44	1.05 ± 0.01 ^ghi mmole TE/L	0.84 ± 0.1 ^d mmole TE/L	88.01 ^ab %	59.22 ^fg %	44.8%	–	–	approximately 10 fold	–	–	–	–
O=C1/C(=C(O)/C=C/c2ccccc2)CCC/C1=C\c1ccccc1 [Compound 2a]	2.54	1.13 ± 0.4 ^g mmole TE/L	0.12 ± 0.01 ^g mmole TE/L	19.69 ^g %	46.1 ^i %	48.2%	–	–	–	–	–	–	–
(E)-2-(4-hydroxybenzylidene)-6-((E)-3-(4-hydroxyphenyl)acryloyl)cyclohexanone [Compound 2b]	2.59	3.02 ± 0.02 ^d mmole TE/L	0.43 ± 0.1 ^f mmole TE/L	88.73 ^ab %	–	–	–	55.5 ^b %	–	–	–	–	–
(E)-2-(4-hydroxy-3-methoxybenzylidene)-5-((E)-3-(4-hydroxy-3-methoxyphenyl)acryloyl)-cyclopentanone [Compound 3d]	4.15	6.70 ± 0.32 ^a mmole TE/L	0.75 ± 0.05 ^d mmole TE/L	93.89 ^a %	79.99 ^b %	–	over 10 fold	41.8 ^de %	–	–	–	–	–
Cc1ccc(/C=C/C(O)=C2\CCC/C(=C\c3ccc(C)cc3)C2=O)cc1 [Compound 2g]	2.87	1.12 ± 0.02 ^g mmole TE/L	0.84 ± 0.01 ^d mmole TE/L	15.04 ^g %	59.44 ^fg %	20.1%	–	–	–	lowest cytotoxicity effects	–	–	–
COc1ccc(/C=C/C(O)=C2\CCC/C(=C\c3ccc(OC)cc3)C2=O)cc1 [Compound 2c]	2.39	1.32 ± 0.001 ^f mmole TE/L	0.11 ± 0.01 ^g mmole TE/L	4.01 ^g %	40.63 ^j %	43.7%	–	–	–	–	~ 5 fold	–	–
Cc1ccc(/C=C/C(O)=C2\CC/C(=C\c3ccc(C)cc3)C2=O)cc1 [Compound 3g]	3.29	0.95 ± 0.02 ^hi mmole TE/L	1.25 ± 0.04 ^bc mmole TE/L	46.19 ^ef %	67.18 ^d %	22.7%	–	–	approximately 10 fold	–	–	–	–
(1E,6E)-1,7-bis(4-hydroxy-3-methoxyphenyl)-1,6-heptadiene-3,5-dione [Curcumin, reference compound]	3.07	5.01 ± 0.1 ^c mmole TE/L	1.89 ± 0.2 ^a mmole TE/L	76.86 ^bc %	12.61 ^k %	–	–	–	–	–	–	5.01 mM TE/L	–
O=C1/C(=C(O)/C=C/c2ccc(O)cc2)CC/C1=C\c1ccc(O)cc1 [Compound 3b]	4.22	2.29 ± 0.1 ^e mmole TE/L	0.49 ± 0.1 ^ef mmole TE/L	90.55 ^ab %	–	41.1%	over 10 fold	–	–	–	–	–	–
(E)-2-(3,4-dimethoxybenzylidene)-6-((E)-3-(3,4-dimethoxyphenyl)acryloyl)cyclohexanone [Compound 2e]	2.59	0.47 ± 0.1 ^k mmole TE/L	0.60 ± 0.1^e mmole TE/L	36.56 ^f %	–	–	–	61.6 ^a %	–	–	–	–	0.47 mM TE/L
O=C1/C(=C(O)/C=C/c2ccccc2)CC/C1=C\c1ccccc1 [Compound 3a]	4.15	1.41 ± 0.1 ^f mmole TE/L	1.12 ± 0.1 ^c mmole TE/L	51.96 ^ef %	70.85 ^c %	27%	over 10 fold	–	–	–	–	–	–
